# Measured values published in patent publication US12252469B2, “Crystalline forms of (E)-N-hydroxy-3-(1-(phenylsulfonyl)indolin-5-yl)acrylamide” (ANBOGEN THERAPEUTICS INC., priority 2023, dated 2025).
# Experiments:
# [1] = Solid stability evaluation for 1/2/4 weeks; conditions: for HPLC purity change after solid stability / form change after solid stability: all storage conditions;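 on all read-outs here: Solid-state physical and chemical stability tracked by XRPD for form, KF for water content, and HPLC for purity and assay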
# Protocol: Type A/B were stored under the conditions of 60° C., 25° C./60% RH, 25° C./92.5% RH and 40° C./75% RH for 1/2/4 weeks for solid stability evaluation. Amorphous was stored under the conditions of 25° C./60% RH and 40° C./75% RH for 1/2/4 weeks for solid stability evaluation. The physical and chemical stability were evaluated by X-ray powder diffraction (XRPD), thermo gravimetric analysis (TGA)/Karl Fischer (KF), differential scanning calorimetry (DSC)/modulated differential I scanning calorimetry (mDSC), high performance liquid chromatography (HPLC) purity and assay, respectively.
# XRPD, TGA, DSC and KF in this example are under the same conditions with those described in Example 2.
# Agilent 1260 were utilized and detailed chromatographic conditions are listed in
# [2] = Competitive slurry, inter-conversion of Type A and Type B; type: physicochemical
# DVS water uptake = type: physicochemical
# Protocol: DVS was measured via a SMS (Surface Measurement Systems) DVS Intrinsic or Intrinsic Plus. The relative humidity at 25° C. were calibrated against deliquescence point of LiCl, Mg(NO3)2 and KCl.
# [3] = Polymorph characterization: form conversion on drying; type: physicochemical
# Protocol: Using ABT-301 Type A (Sample name: ABT-301, CP ID: 826543-01-A) as starting material, a total of 100 polymorph screening experiments were performed, using methods of vapor-solution diffusion, vapor-solid diffusion, slow evaporation, slurry (RT and 50° C.), temperature cycling, slow cooling, anti-solvent addition and grinding.
smiles,measurement,setting,value
"O=C(/C=C/c1ccc2c(c1)CCN2S(=O)(=O)c1ccccc1)NO [Amorphous, (E)-N-hydroxy-3-(1-(phenylsulfonyl)indolin-5-yl) acrylamide]",Assay,"[1]; 25° C./60% RH, 1 week",91.3%
same,Form (XRPD),"[1]; 25° C./60% RH, 1 week",Type A
same,HPLC purity,"[1]; 25° C./60% RH, 1 week",99.71 Area %
same,Assay,"[1]; 25° C./60% RH, 2 weeks",92.2%
same,Form (XRPD),"[1]; 25° C./60% RH, 2 weeks",Type A
same,HPLC purity,"[1]; 25° C./60% RH, 2 weeks",99.76 Area %
same,Assay,"[1]; 25° C./60% RH, 4 weeks",90.7%
same,Form (XRPD),"[1]; 25° C./60% RH, 4 weeks",Type A
same,HPLC purity,"[1]; 25° C./60% RH, 4 weeks",99.81 Area %
same,Assay,"[1]; 40° C./75% RH, 1 week",91.5%
same,Form (XRPD),"[1]; 40° C./75% RH, 1 week",Type A
same,HPLC purity,"[1]; 40° C./75% RH, 1 week",99.75 Area %
same,Assay,"[1]; 40° C./75% RH, 2 weeks",92.1%
same,Form (XRPD),"[1]; 40° C./75% RH, 2 weeks",Type A
same,HPLC purity,"[1]; 40° C./75% RH, 2 weeks",99.78 Area %
same,Assay,"[1]; 40° C./75% RH, 4 weeks",90.6%
same,Form (XRPD),"[1]; 40° C./75% RH, 4 weeks",Type A
same,HPLC purity,"[1]; 40° C./75% RH, 4 weeks",99.84 Area %
same,Assay,[1]; Initial,91.5%
same,Form (XRPD),[1]; Initial,Amorphous
same,HPLC purity,[1]; Initial,99.84 Area %
same,HPLC purity change after solid stability,[1]; 4 weeks,no obvious HPLC purity change
same,form change after solid stability,[1]; 4 weeks,converted to Type A
"O=C(/C=C/c1ccc2c(c1)CCN2S(=O)(=O)c1ccccc1)NO [Type A/Type B, (E)-N-hydroxy-3-(1-(phenylsulfonyl)indolin-5-yl) acrylamide]","Result (form obtained, competitive slurry)","[2]; 2-MeTHF, 50° C., 2 days",Type B
same,"Result (form obtained, competitive slurry)","[2]; 2-MeTHF, RT, 2 days",Type B + P
same,"Result (form obtained, competitive slurry)","[2]; Acetone (aw~0), RT, 2 days",Type D
same,"Result (form obtained, competitive slurry)","[2]; Acetone/H2O (95:5, aw~0.4), RT, 1 day",Type D
same,"Result (form obtained, competitive slurry)","[2]; Acetone/H2O (605:395, aw~0.8), RT, 1 day",Type D
same,"Result (form obtained, competitive slurry)","[2]; Acetone/H2O (857:143, aw~0.6), RT, 1 day",Type D
same,"Result (form obtained, competitive slurry)","[2]; Acetone/H2O (986:14, aw~0.2), RT, 1 day",Type D
same,"Result (form obtained, competitive slurry)","[2]; H2O, RT, 1 day",Type A
same,"Result (form obtained, competitive slurry)","[2]; MIBK, 50° C., 2 days",Type B
same,"Result (form obtained, competitive slurry)","[2]; MIBK, RT, 2 days",Type O
same,"Result (form obtained, competitive slurry)","[2]; Toluene, 50° C., 8 days",Type B
same,"Result (form obtained, competitive slurry)","[2]; Toluene, RT, 1 day, without molecular sieve, KF 0.0250 wt %, water activity 0.32",Type A
same,"Result (form obtained, competitive slurry)","[2]; Toluene, RT, 2 days, with molecular sieve, KF 0.0072 wt %, water activity 0.11",Type B
same,"Result (form obtained, competitive slurry)","[2]; n-Heptane, 50° C., 8 days",Type B
same,"Result (form obtained, competitive slurry)","[2]; n-Heptane, RT, 1 day, without molecular sieve, KF 0.0049 wt %, water activity 0.29",Type A
same,"Result (form obtained, competitive slurry)","[2]; n-Heptane, RT, 2 days, with molecular sieve, KF 0.0003 wt %, water activity 0.02",Type B
same,"Result (form obtained, competitive slurry)","[2]; t-Butanol, RT, 1 day, water activity 0.06",Type B
same,"Result (form obtained, competitive slurry)","[2]; t-Butanol/H2O (886:121), RT, 3 days, water activity 0.88",Type A
same,"Result (form obtained, competitive slurry)","[2]; t-Butanol/H2O (909:10), RT, 1 day, water activity 0.17",Type B
same,"Result (form obtained, competitive slurry)","[2]; t-Butanol/H2O (962:71), RT, 3 days, water activity 0.71",Type A
same,"Result (form obtained, competitive slurry)","[2]; t-Butanol/H2O (980:35), RT, 1 day, water activity 0.37",Type A
same,"Result (form obtained, competitive slurry)","[2]; t-Butanol/H2O (985:30), RT, 3 days, water activity 0.56",Type A
"O=C(/C=C/c1ccc2c(c1)CCN2S(=O)(=O)c1ccccc1)NO [Type B, (E)-N-hydroxy-3-(1-(phenylsulfonyl)indolin-5-yl) acrylamide]",water activity at which the form was obtained in competitive slurry,"[2]; t-Butanol and t-Butanol/H2O, RT, water activity calculated from KF by COSMOlogic",≤ 0.17
same,water uptake (DVS),DVS water uptake; 25° C./80% RH,0.1039%
same,form change after DVS test (XRPD),DVS water uptake; after DVS test,no form change
same,Assay,"[1]; 25° C./60% RH, 1 week",97.8%
same,Form (XRPD),"[1]; 25° C./60% RH, 1 week",Type B
same,HPLC purity,"[1]; 25° C./60% RH, 1 week",99.85 Area %
same,Assay,"[1]; 25° C./60% RH, 2 weeks",96.8%
same,Form (XRPD),"[1]; 25° C./60% RH, 2 weeks",Type B
same,HPLC purity,"[1]; 25° C./60% RH, 2 weeks",99.85 Area %
same,Assay,"[1]; 25° C./60% RH, 4 weeks",98.2%
same,Form (XRPD),"[1]; 25° C./60% RH, 4 weeks",Type B
same,HPLC purity,"[1]; 25° C./60% RH, 4 weeks",99.86 Area %
same,KF (water content),"[1]; 25° C./60% RH, 4 weeks",2.0658%
same,Assay,"[1]; 40° C./75% RH, 1 week",97.6%
same,Form (XRPD),"[1]; 40° C./75% RH, 1 week",Type B
same,HPLC purity,"[1]; 40° C./75% RH, 1 week",99.85 Area %
same,Assay,"[1]; 40° C./75% RH, 2 weeks",97.1%
same,Form (XRPD),"[1]; 40° C./75% RH, 2 weeks",Type B
same,HPLC purity,"[1]; 40° C./75% RH, 2 weeks",99.84 Area %
same,Assay,"[1]; 40° C./75% RH, 4 weeks",97.8%
same,Form (XRPD),"[1]; 40° C./75% RH, 4 weeks",Type B
same,HPLC purity,"[1]; 40° C./75% RH, 4 weeks",99.85 Area %
same,KF (water content),"[1]; 40° C./75% RH, 4 weeks",0.8491%
same,Assay,"[1]; 60° C., 1 week",98.0%
same,Form (XRPD),"[1]; 60° C., 1 week",Type B
same,HPLC purity,"[1]; 60° C., 1 week",99.84 Area %
same,Assay,"[1]; 60° C., 2 weeks",96.5%
same,Form (XRPD),"[1]; 60° C., 2 weeks",Type B
same,HPLC purity,"[1]; 60° C., 2 weeks",99.80 Area %
same,Assay,"[1]; 60° C., 4 weeks",97.9%
same,Form (XRPD),"[1]; 60° C., 4 weeks",Type B
same,HPLC purity,"[1]; 60° C., 4 weeks",99.76 Area %
same,KF (water content),"[1]; 60° C., 4 weeks",1.9894%
same,Assay,[1]; Initial,96.8%
same,Form (XRPD),[1]; Initial,Type B
same,HPLC purity,[1]; Initial,99.85 Area %
same,KF (water content),[1]; Initial,0.5387%
same,Assay,"[1]; […], 1 week",97.9%
same,Form (XRPD),"[1]; […], 1 week",Type B
same,HPLC purity,"[1]; […], 1 week",99.85 Area %
same,Assay,"[1]; […], 2 weeks",96.8%
same,Form (XRPD),"[1]; […], 2 weeks",Type B
same,HPLC purity,"[1]; […], 2 weeks",99.85 Area %
same,Assay,"[1]; […], 4 weeks",98.1%
same,Form (XRPD),"[1]; […], 4 weeks",Type B
same,HPLC purity,"[1]; […], 4 weeks",99.85 Area %
same,KF (water content),"[1]; […], 4 weeks",1.8514%
same,HPLC purity change after solid stability,[1]; 4 weeks,"no form change, or obvious HPLC purity change"
same,form change after solid stability,[1]; 4 weeks,no form change
"O=C(/C=C/c1ccc2c(c1)CCN2S(=O)(=O)c1ccccc1)NO [Type P, (E)-N-hydroxy-3-(1-(phenylsulfonyl)indolin-5-yl) acrylamide]",form conversion on drying,[3]; dried at RT overnight,The sample converted to Type A after dried at RT overnight.
"O=C(/C=C/c1ccc2c(c1)CCN2S(=O)(=O)c1ccccc1)NO [Type Q, (E)-N-hydroxy-3-(1-(phenylsulfonyl)indolin-5-yl) acrylamide]",form conversion on drying,[3]; dried at RT in open air for 8 days and under vacuum for 16.5 hours,The sample converted to Type M after dried at RT in open
